Experimental data taken from patent publication US20190380978A1, “SOLID ORAL DOSAGE FORMS OF 2R,6R-HYDROXYNORKETAMINE OR DERIVATIVES THEREOF” (priority 2016, published 2019).

Key:
[1] = turbidimetric aqueous solubility; assay type: physicochemical
[2] = molecular target: 5-HT1B (Homo sapiens, UniProt P28222); assay: binding to 5-HT1B receptor
Excerpt: (§1) 2R,6R-hydroxynorketamine was investigated for binding to monoamine oxidases A and B, monoamine transporters, as well as a variety of 5HT receptors.

[3] = molecular target: T1, CYP2B6 (Homo sapiens, UniProt P20813); assay: CYP inhibition assay, CYP2B6; assay type: in vitro ADME
T1 sequence (P20813 1-491): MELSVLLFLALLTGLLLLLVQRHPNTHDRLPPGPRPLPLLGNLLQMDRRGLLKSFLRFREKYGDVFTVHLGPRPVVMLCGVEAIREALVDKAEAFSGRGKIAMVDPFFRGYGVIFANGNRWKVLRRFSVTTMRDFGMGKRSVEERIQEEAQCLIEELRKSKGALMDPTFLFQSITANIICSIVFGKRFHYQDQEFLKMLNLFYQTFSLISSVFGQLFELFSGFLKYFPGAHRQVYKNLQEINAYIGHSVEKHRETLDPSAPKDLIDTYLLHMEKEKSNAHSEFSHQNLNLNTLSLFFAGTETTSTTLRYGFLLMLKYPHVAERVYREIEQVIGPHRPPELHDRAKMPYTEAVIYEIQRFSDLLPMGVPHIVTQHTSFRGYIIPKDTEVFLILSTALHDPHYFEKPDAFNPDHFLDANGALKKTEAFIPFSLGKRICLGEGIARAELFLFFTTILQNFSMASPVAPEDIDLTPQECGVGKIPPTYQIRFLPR
Excerpt: (§2) Cytochrome P450s (CYPs) are a family of enzymes that play a primary role in the metabolism of a wide variety of drugs. 2R,6R-hydroxynorketamine was investigated for its potential to inhibit the action of 7 key CYP enzymes using an inhibition assay measuring reduction in the formation of metabolites compared to control.

[4] = molecular target: T2, 5-HT2C (Homo sapiens, UniProt P28335); assay: binding to 5-HT2C receptor
T2 sequence (P28335 33-458): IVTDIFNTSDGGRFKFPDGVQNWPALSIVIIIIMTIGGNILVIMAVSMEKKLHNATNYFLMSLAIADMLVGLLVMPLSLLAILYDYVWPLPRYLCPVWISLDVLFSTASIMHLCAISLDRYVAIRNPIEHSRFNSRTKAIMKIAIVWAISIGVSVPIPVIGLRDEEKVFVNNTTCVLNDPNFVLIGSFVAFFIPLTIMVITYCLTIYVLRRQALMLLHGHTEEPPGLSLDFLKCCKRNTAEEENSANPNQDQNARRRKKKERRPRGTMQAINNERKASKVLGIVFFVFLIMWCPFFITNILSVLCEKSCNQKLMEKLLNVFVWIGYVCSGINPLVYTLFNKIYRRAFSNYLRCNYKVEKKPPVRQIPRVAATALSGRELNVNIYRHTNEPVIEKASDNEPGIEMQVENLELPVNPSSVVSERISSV
Excerpt: as §1

[5] = in vitro; details: human
[6] = molecular target: norepinephrine transporter (Homo sapiens, UniProt P23975); assay: binding to norepinephrine transporter
norepinephrine transporter, sequence (P23975 whole entry, species assumed): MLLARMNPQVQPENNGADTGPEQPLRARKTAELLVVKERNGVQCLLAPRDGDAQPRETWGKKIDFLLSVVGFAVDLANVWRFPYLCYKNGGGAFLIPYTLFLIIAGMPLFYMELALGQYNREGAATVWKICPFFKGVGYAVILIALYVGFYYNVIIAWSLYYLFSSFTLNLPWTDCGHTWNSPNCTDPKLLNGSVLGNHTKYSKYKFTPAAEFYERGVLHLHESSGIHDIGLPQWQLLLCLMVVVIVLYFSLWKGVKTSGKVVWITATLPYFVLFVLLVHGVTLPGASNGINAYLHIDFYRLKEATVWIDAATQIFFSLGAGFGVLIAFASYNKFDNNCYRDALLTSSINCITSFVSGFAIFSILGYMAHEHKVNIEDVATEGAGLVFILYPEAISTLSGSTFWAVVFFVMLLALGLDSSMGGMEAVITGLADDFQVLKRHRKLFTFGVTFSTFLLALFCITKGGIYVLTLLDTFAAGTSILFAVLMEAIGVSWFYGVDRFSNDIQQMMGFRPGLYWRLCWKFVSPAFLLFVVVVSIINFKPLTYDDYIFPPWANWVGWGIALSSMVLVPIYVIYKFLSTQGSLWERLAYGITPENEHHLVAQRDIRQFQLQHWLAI
Excerpt: as §1

[7] = molecular target: 5-HT transporter (Homo sapiens, UniProt P31645); assay: binding to 5-HT transporter
5-HT transporter, sequence (P31645 whole entry, species assumed): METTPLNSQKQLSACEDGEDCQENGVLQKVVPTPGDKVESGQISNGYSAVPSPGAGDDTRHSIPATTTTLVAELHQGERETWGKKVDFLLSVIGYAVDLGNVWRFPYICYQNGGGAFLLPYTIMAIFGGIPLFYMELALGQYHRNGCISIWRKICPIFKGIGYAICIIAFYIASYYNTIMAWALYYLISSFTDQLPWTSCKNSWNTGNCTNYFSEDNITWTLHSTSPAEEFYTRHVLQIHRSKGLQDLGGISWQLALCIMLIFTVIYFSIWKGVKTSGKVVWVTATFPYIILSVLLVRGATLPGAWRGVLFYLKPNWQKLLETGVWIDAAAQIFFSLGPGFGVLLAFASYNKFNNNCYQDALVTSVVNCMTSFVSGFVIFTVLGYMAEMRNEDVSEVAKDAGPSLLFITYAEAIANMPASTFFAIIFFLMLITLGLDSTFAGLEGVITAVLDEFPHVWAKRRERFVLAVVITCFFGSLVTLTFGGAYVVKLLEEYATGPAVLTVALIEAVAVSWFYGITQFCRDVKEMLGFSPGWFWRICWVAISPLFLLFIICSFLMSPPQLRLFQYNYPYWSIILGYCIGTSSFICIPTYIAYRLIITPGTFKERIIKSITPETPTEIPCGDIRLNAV
Excerpt: as §1

[8] = tested on: plasma binding proteins; assay: fraction unbound in 100% plasma, human; assay type: in vitro ADME
Excerpt: (§3) While the risk of DDIs due to displacement from plasma binding proteins (PPBs) is relatively low, it should be considered for drugs which display a high proportion PPB (fraction unbound (fu)<1%).
(§4) The fu was investigated for 2R,6R-hydroxynorketamine using a 100% plasma from 4 test species.

[9] = molecular target: CYP3A4 (Homo sapiens, UniProt P08684); assay: CYP inhibition assay, CYP3A4 (substrates midazolam and testosterone); assay type: in vitro ADME; details: for inhibition at 0.4 µM / inhibition at 1 µM / inhibition at 4 µM / inhibition at 10 µM / inhibition at 40 µM / inhibition at 100 µM: human
CYP3A4, sequence (P08684 whole entry): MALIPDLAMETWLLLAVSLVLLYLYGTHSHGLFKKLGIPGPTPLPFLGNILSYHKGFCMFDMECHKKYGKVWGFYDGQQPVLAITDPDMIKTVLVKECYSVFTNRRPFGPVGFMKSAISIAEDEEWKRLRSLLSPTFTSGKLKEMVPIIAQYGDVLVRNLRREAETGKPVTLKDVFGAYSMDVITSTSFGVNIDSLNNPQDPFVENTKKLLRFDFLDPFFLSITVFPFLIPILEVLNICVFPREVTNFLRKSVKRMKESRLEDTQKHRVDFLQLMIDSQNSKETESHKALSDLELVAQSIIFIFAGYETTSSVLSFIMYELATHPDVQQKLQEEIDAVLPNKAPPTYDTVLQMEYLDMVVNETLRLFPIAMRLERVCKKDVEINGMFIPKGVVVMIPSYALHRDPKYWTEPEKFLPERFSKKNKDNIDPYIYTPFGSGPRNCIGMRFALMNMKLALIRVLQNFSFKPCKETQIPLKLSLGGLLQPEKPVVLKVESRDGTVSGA
Excerpt: as §2

[10] = tested on: Caco-2
[11] = molecular target: MAO-A (Homo sapiens, UniProt P21397); assay: binding to monoamine oxidase A
MAO-A, sequence (P21397 whole entry, species assumed): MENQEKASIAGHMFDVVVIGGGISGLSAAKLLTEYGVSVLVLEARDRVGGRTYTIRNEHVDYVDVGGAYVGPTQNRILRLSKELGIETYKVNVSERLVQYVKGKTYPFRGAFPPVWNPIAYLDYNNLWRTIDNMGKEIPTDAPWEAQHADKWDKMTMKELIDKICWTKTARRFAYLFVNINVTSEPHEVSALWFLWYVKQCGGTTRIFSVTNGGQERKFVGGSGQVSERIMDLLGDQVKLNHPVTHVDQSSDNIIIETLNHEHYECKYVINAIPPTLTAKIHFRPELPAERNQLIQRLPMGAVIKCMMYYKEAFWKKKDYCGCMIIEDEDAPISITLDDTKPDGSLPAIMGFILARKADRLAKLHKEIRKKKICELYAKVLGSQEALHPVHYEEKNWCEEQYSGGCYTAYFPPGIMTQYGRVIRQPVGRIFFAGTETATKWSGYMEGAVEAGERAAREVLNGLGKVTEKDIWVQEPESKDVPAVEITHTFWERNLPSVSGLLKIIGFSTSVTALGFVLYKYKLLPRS
Excerpt: as §1

[12] = molecular target: 5-HT2B (Homo sapiens, UniProt P41595); assay: binding to 5-HT2B receptor
5-HT2B, sequence (P41595 whole entry, species assumed): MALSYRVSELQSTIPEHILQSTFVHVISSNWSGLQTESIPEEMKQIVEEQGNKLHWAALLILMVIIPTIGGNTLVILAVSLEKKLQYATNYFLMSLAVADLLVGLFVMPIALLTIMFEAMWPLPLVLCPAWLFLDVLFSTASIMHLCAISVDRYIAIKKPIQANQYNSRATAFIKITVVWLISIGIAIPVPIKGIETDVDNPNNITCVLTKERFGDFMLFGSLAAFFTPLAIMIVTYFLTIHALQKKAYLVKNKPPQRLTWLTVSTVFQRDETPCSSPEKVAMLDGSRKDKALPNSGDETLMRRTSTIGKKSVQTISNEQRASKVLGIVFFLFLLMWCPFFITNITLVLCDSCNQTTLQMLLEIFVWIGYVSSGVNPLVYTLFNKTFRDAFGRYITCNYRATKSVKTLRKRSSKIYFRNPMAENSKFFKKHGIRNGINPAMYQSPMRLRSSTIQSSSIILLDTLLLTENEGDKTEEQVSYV
Excerpt: as §1

[13] = molecular target: MAO-B (Homo sapiens, UniProt P27338); assay: binding to monoamine oxidase B
MAO-B, sequence (P27338 whole entry, species assumed): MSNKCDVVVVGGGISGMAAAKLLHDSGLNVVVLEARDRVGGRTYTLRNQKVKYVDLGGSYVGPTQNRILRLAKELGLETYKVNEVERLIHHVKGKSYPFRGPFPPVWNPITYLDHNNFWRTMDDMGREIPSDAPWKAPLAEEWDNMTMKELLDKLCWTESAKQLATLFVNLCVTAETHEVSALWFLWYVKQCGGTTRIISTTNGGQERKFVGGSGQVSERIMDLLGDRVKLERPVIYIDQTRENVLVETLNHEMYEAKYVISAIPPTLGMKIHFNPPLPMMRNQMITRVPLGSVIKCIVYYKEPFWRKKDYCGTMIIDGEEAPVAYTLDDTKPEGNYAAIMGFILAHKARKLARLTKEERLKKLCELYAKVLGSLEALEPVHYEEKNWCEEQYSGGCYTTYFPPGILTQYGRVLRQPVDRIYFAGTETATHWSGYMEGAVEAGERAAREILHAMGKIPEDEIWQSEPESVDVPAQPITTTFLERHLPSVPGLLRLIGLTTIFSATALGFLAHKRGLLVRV
Excerpt: as §1

[14] = tested on: plasma binding proteins; assay: fraction unbound in 100% plasma, dog; assay type: in vitro ADME
Excerpt: as §3, §4

[15] = probe midazolam, Substrate = midazolam
[16] = probe testosterone, Substrate = testosterone

5-HT1B, sequence (P28222 whole entry, species assumed): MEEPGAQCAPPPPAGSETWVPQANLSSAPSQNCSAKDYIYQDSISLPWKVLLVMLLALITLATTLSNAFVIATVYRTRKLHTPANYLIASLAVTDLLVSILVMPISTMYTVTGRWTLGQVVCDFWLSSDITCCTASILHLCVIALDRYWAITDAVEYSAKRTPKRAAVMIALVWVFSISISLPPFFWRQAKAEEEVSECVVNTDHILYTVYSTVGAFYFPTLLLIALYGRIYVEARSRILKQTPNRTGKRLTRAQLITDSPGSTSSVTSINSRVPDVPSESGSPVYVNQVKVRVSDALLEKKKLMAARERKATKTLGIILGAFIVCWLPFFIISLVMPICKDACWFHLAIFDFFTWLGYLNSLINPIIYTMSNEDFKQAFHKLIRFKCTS

Question: With `N[C@@]1(c2ccccc2Cl)CCC[C@@H](O)C1=O` [2R,6R-hydroxynorketamine] as the compound, how does the “estimated precipitation range lower bound” value [1] read?
Answer: 100 µM

Question: What about the “estimated precipitation range upper bound” value [1] of the same compound?
Answer: > 100 µM

Question: And the “solubility” value [1]?
Answer: high solubility

Question: And the “% Inhibition of Control Specific Binding” value [2]?
Answer: −2%

Question: What about the “% of Control Specific Binding” value [2] of the same compound?
Answer: 102.7%

Question: What about the “binding to 5HT1B receptor subtype” value [2] of the same compound?
Answer: does not bind

Question: What about the “inhibition of CYP2B6” value [3] of the same compound?
Answer: did not inhibit

Question: And the inhibition at 0.4 µM ([3]; human, 0.4 μM)?
Answer: 6.03%

Question: And the inhibition at 1 µM ([3]; human, 1 μM)?
Answer: 10.1%

Question: And the inhibition at 4 µM ([3]; human, 4 μM)?
Answer: 10.6%

Question: And the inhibition at 10 µM ([3]; human, 10 μM)?
Answer: 14.4%

Question: What about the inhibition at 40 µM ([3]; human, 40 μM) of the same compound?
Answer: 14.8%

Question: What about the inhibition at 100 µM ([3]; human, 100 μM) of the same compound?
Answer: 16.7%

Question: And the “% Inhibition of Control Specific Binding” value [4]?
Answer: 10%

Question: What about the “% of Control Specific Binding” value [4] of the same compound?
Answer: 91.1%

Question: And the “binding to 5HT2C receptor subtype” value [4]?
Answer: does not bind

Question: And the recovery ([5]; Caco-2, Direction = A2B Mean % Recovery, Caco-2, A2B)?
Answer: 98.9%

Question: And the Papp A→B ([5]; Caco-2, Direction = A2B Mean Papp, Caco-2, A2B, mean, n 2)?
Answer: 45.7 ×10⁻⁶ cm/s

Question: What about the Papp A→B ([5]; Caco-2, Direction = A2B Papp Replicate 1, Caco-2, A2B, replicate 1) of the same compound?
Answer: 49.1 ×10⁻⁶ cm/s

Question: And the Papp A→B ([5]; Caco-2, Direction = A2B Papp Replicate 2, Caco-2, A2B, replicate 2)?
Answer: 42.3 ×10⁻⁶ cm/s

Question: And the recovery ([5]; Caco-2, Direction = B2A Mean % Recovery, Caco-2, B2A)?
Answer: 103%

Question: What about the Papp B→A ([5]; Caco-2, Direction = B2A Mean Papp, Caco-2, B2A, mean, n 2) of the same compound?
Answer: 50.7 ×10⁻⁶ cm/s

Question: What about the Papp B→A ([5]; Caco-2, Direction = B2A Papp Replicate 1, Caco-2, B2A, replicate 1) of the same compound?
Answer: 52.8 ×10⁻⁶ cm/s

Question: What about the Papp B→A ([5]; Caco-2, Direction = B2A Papp Replicate 2, Caco-2, B2A, replicate 2) of the same compound?
Answer: 48.5 ×10⁻⁶ cm/s

Question: And the efflux ratio ([5]; Caco-2, Efflux Ratio (Mean Papp B2A/Mean Papp A2B), Caco-2, without inhibitor)?
Answer: < 2

Question: What about the “% Inhibition of Control Specific Binding” value [6] of the same compound?
Answer: −16%

Question: What about the “% of Control Specific Binding” value [6] of the same compound?
Answer: 117.6%

Question: What about the “% Inhibition of Control Specific Binding” value [7] of the same compound?
Answer: 2%

Question: And the “% of Control Specific Binding” value [7]?
Answer: 102.0%

Question: What about the “plasma protein binding (PPB), words” value [8] of the same compound?
Answer: low PPB

Question: And the inhibition at 0.4 µM [9, 15]?
Answer: 11.5%

Question: What about the inhibition at 1 µM [9, 15] of the same compound?
Answer: 8.44%

Question: What about the inhibition at 4 µM [9, 15] of the same compound?
Answer: 15.7%

Question: What about the inhibition at 10 µM [9, 15] of the same compound?
Answer: 25.7%

Question: And the inhibition at 40 µM [9, 15]?
Answer: 43.7%

Question: And the inhibition at 100 µM [9, 15]?
Answer: 57.5%

Question: What about the inhibition at 0.4 µM [9, 16] of the same compound?
Answer: 1.62%

Question: What about the inhibition at 1 µM [9, 16] of the same compound?
Answer: -0.509%

Question: And the inhibition at 4 µM [9, 16]?
Answer: 7.04%

Question: And the inhibition at 10 µM [9, 16]?
Answer: 12.4%

Question: What about the inhibition at 40 µM [9, 16] of the same compound?
Answer: 35.2%

Question: What about the inhibition at 100 µM [9, 16] of the same compound?
Answer: 53.4%

Question: And the IC50 ([9]; substrate midazolam)?
Answer: 69 µM

Question: What about the IC50 ([9]; substrate testosterone) of the same compound?
Answer: 81 µM

Question: And the “substrate of p-gp or Breast Cancer Resistance Protein (BCRP) efflux transporters” value ([10]; Caco-2)?
Answer: not a substrate

Question: And the “permeability” value ([10]; Caco-2 permeability assay)?
Answer: high

Question: What about the “% Inhibition of Control Specific Binding” value [11] of the same compound?
Answer: −5%

Question: What about the “% of Control Specific Binding” value [11] of the same compound?
Answer: 97.7%

Question: What about the “% Inhibition of Control Specific Binding” value [12] of the same compound?
Answer: 5%

Question: And the “% of Control Specific Binding” value [12]?
Answer: 100.9%

Question: What about the “binding to 5HT2B receptor subtype” value [12] of the same compound?
Answer: does not bind

Question: What about the “% Inhibition of Control Specific Binding” value [13] of the same compound?
Answer: −1%

Question: And the “% of Control Specific Binding” value [13]?
Answer: 100.4%

Question: What about the “plasma protein binding (PPB), words” value [14] of the same compound?
Answer: low PPB
